# Laboratory results reported in ChEMBL document CHEMBL3638839, “Azetidine derivatives” (2015).
# Molecular target: T1, Fatty-acid amide hydrolase 1 (Homo sapiens, UniProt O00519)
# T1 sequence (O00519 whole entry): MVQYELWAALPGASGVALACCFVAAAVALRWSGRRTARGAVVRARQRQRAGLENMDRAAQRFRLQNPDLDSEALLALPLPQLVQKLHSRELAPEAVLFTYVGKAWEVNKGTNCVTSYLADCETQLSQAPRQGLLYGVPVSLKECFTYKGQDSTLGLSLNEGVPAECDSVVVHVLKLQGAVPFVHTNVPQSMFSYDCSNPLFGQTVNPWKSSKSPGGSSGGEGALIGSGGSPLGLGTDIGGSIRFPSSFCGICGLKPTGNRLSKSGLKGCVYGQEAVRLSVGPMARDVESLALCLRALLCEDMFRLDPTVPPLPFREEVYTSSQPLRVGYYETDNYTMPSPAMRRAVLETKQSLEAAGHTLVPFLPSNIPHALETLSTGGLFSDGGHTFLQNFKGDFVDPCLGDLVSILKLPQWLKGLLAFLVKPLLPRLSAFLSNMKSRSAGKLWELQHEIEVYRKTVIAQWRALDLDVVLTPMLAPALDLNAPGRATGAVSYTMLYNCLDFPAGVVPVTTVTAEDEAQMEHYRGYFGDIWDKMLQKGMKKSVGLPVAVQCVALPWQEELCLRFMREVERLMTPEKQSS
# Assay: Inhibition Assay: Human FAAH 1 activity was determined by measuring the liberation of the highly fluorescent 7-amino, 4-methyl Coumarin (AMC) generated during hydrolysis of the substrate arachidonoyl 7-amino, 4-methyl coumarin amide (AAMCA) by FAAH. Inhibition of human FAAH 1 activity was determined as a percentage reduction of the fluorescence determined in the absence of compound.The assay was carried out in black-walled, clear bottom, 384-well plates. 27.5 ul of human FAAH 1 protein (in FAAH assay buffer: 50 mM Hepes, 0.01% Triton X-100, 1 mM EDTA, 0.5 mg/ml BSA (fatty-acid-free), pH 8.2) was pre-incubated, at 10 nM, with increasing concentrations of compounds (2.5 ul in 100% DMSO) for 1 hour at room temperature. 2.5 ul of DMSO was added for total controls (100% FAAH activity) and 2.5 ul of URB-597, a known inhibitor of FAAH activity, (at a final, saturating, concentration of 10 uM) was used for non-specific controls (0 FAAH activity).
smiles,measurement,value
COc1ccccc1-c1ccc(OC2CN(C(=O)Nc3cccnn3)C2)nc1,IC50,12 nM
